Reference: patent US7495027B2, “3-aryl-4-hydroxyfuranone compounds and the human and animal health use thereof” (Wyeth, priority 2003, dated 2009)
pIC50: −log10 of the molar value. ≈ marks a conversion by molar mass, not a printed value. Where two headings read alike, the source gives them in different places.

Columns and labels:
[1] = biological target: E. coli UDP-N-acetylglucosamine enolpyruvoyl transferase, MurA (Escherichia coli, UniProt P0A749); experiment: biochemical; conditions: (E) E. coli enzyme
Chain of E. coli UDP-N-acetylglucosamine enolpyruvoyl transferase, MurA (P0A749 whole entry): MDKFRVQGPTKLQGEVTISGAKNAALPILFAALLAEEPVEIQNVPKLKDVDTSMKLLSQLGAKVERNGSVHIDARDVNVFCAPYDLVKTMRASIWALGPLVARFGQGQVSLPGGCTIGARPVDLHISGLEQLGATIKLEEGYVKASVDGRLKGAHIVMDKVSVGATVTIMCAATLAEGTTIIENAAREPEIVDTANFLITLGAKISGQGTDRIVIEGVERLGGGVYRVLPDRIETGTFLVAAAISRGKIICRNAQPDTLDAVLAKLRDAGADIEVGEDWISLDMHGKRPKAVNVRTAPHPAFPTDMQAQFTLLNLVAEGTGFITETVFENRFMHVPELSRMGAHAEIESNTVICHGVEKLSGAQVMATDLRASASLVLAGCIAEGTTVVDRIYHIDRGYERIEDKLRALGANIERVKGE
Description: Evaluation of the Inhibitory Activity of Test Compounds Against Enzymes which Catalyze Bacterial Cell Wall Biosynthesis
S. aureus and E. coli UDP-N-acetylglucosamine enolpyruvoyl transferase, MurA
(§1) Preparation of Enzyme Solution:
The enzyme solution is prepared by admixing the following: 50 mM Tris/HCl pH 8.0, […] 1 M Tris, 5 mM DTT, […] 1 M DTT, 20% Glycerol 4 ml 50% Glycerol, add water to 10 ml.
(§2) Preparation of Stop Solution:
A procedure similar to that described by C. […] Experiments are performed by adding a solution of test compound (in a mixture of dimethylsulfoxide and water) and an enzyme solution to a well. After a pre-incubation period of 10 mintues at 37° C., Tris/BME buffer and assay buffer are added. A start point optical density (OD0) reading is taken at 340 nm immediately following the addition of assay buffer. After incubation for 1 hr at 37° C., the stop solution is added and the color is allowed to develop for 30 minutes.

[2] = biological target: E. coli Enopyruvyl-UPD-N-acetylglucosamine reductase, Mur B (Escherichia coli, UniProt P08373); experiment: biochemical; conditions: (E) E. coli enzyme; for IC50: read-out: MurB IC50 (converted)
Chain of E. coli Enopyruvyl-UPD-N-acetylglucosamine reductase, Mur B (P08373 whole entry): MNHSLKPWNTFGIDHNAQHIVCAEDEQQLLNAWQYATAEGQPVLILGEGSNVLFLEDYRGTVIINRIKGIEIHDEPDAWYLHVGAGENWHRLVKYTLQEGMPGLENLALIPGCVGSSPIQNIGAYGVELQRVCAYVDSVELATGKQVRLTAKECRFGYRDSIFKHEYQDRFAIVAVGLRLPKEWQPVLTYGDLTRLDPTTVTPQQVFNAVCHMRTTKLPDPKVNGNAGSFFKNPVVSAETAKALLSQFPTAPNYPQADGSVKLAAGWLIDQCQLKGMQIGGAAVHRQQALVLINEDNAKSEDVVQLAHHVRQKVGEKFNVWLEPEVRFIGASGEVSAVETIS
Description: S. aureus and E. coli Enopyruvyl-UPD-N-acetylglucosamine reductase, Mur B
Preparation of Tris/BME buffer:
Dilute 17.5 uL of aqueous 5 mM BME (2-mercaptoethanol) to 50 mL with 50 mM Tris/HCl (pH 8.0).
as §1
Dilute aqueous MurB stock solution (0.94 mg/mL) with 200 parts 50 mM Tris/2-BME buffer.
Synthesis of Substrate for MurB (MurA Product EP-UDP-GluNAc):
A mixture of 13 mg UDP-N-acetylglucosamine and 5.5 mg phosphoenolpyruvate are dissolved in 10 mL Tris/BME buffer forming 2 mM concentrations of each reagent in solution.
Preparation of Assay Buffer:
The assay buffer is prepared in water from reagents with the following final concentrations: 100 mM Tris/HCl (pH 8.0), 200 μM NADPH, 100 μM MurB substrate, 10 μM 2-mercaptoethanol, and 10 μM KCl.
Experiments are performed by adding 20 μL of a solution of test compound in a mixture of dimethylsulfoxide and water and 30 μL of enzyme solution to a well. After a pre-incubation period of 20 mins. at 23° C., 50 μL of Tris/BME buffer and 100 μL of assay buffer are added. […] Controls are performed using the same procedure and employing 20 μL of a blank dimethylsulfonide and solvent mixture in place of the test compound solution.
Using these values, the IC50 for each test compound is determined by linear regression analysis.

[3] = biological target: E. coli Uridine-diphosphate-N-acetvimuramoyl: L-alanine lipase, MurC (Escherichia coli, UniProt P17952); experiment: Inhibitory activity against MurC (E. coli); type: biochemical; conditions: (E) E. coli enzyme; for IC50: read-out: MurC IC50 (converted)
Chain of E. coli Uridine-diphosphate-N-acetvimuramoyl: L-alanine lipase, MurC (P17952 whole entry): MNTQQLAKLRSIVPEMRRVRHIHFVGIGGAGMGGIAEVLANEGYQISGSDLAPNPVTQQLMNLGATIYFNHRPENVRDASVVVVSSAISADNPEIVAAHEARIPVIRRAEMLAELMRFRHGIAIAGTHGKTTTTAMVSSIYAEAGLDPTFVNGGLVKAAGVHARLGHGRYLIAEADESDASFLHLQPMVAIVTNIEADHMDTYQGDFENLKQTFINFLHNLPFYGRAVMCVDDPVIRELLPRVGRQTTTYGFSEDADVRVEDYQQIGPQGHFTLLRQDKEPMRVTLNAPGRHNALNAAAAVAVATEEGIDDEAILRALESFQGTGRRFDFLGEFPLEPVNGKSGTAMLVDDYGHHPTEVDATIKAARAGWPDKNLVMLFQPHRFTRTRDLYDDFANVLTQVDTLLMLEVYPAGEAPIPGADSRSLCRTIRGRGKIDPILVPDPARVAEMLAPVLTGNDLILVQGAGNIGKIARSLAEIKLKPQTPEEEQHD
Description: S. aureus and E. coli Uridine-diphosphate-N-acetvimuramoyl: L-alanine lipase, MurC
The buffer is prepared from aqueous reagents with the following final concentrations: 83 mM Tris/HCl (pH 8.0), 50 mM MgC12, and 2 mM ATP.
as §1
A 1 mg/mL stock solution of MurC is prepared in a buffer consisting of 20 mM Tris/HCl (pH 8.5) with 2.5 μM BME. The stock solution is further diluted with the buffer to give a final enzyme concentration of 100 μg/mL for the E. coli stock solution and 70 μg/mL for the S. aureus stock solution.
(§3) Preparation of Test Compound Solutions:
(§4) All test solutions are prepared in DMSO as 10 mg/mL, then diluted with 50 mM Tris/HCl (pH 8.5) to 100 μg/mL.
as §2
The stop solution is prepared by stirring 1 part 4.2% ammonium molydbate in 4N HCl with 2 parts 0.045% malachite green for 30 min.
In this evaluation, the inhibitory activity of a test compound against MurC, the enzyme which catalyzes the third step of bacterial cell wall bioxynthesis is determined. Experiments are performed by adding 2.5 μl buffer, 2.5 μl 0.5M NH4SO2, 5 μl 2 μM L-Ala, 5 μl enzyme solution and 6.5 μl test compound solution to each well in a 96-well microplate. After a pre-incubation period of 10 mins. at 23° C., 3.75 μl of a 0.75 μM solution of UDP-MurNac is added to each well. Following an incubation period of 10 mins. at 37° C., 210 μl stop solution and 50 μl of a 34% w/v sodium citrate solution are added and color is allowed to develop for 10 mins. at 23° C. (Lanzetta et al., Analytical Biochemistry, 1979, 95) Optical density readings are taken at 660 nm using a Molecular Devices Spectra Max 250 with Soft Max software. Controls are performed using the same procedure and omitting the addition of UDP-MurNac.
Using these values the IC50 is determined by linear regression analysis.

[4] = biological target: E. coli Uridine-diphosphate-N-acetylmuramoyl-L-alanine: D-glutamate liease, MurD (Escherichia coli, UniProt P14900); experiment: biochemical; conditions: (E) E. coli enzyme
Chain of E. coli Uridine-diphosphate-N-acetylmuramoyl-L-alanine: D-glutamate liease, MurD (P14900 whole entry): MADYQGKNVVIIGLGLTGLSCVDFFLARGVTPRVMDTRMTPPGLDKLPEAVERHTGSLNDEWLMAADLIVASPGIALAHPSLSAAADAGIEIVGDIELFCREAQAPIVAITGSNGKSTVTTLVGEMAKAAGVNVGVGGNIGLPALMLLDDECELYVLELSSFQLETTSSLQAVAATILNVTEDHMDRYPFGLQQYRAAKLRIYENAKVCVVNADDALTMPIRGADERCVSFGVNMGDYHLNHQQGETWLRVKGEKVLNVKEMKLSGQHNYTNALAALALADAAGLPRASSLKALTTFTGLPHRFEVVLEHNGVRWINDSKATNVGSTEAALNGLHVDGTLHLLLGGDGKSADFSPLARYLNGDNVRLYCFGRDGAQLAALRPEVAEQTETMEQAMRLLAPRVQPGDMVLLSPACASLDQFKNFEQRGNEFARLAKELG
Description: S. aureus and E. coli Uridine-diphosphate-N-acetylmuramoyl-L-alanine: D-glutamate liease, MurD
The buffer is prepared from aqueous reagents with the following final concentrations: 83 mM Tris/HCl (pH 8.0), 50 mM MgCl2, and 2 mM ATP.
as §1, §3, §4, §2
In this evaluation, the inhibitory activity of a test compound against MurD, the enzyme which catalyzes the fourth step of bacterial cell wall biosynthesis is determined.

staphylococci = experiment: Minimum inhibitory concentration, microdilution broth method, staphylococci; type: cell-based; conditions: Staphylococcus aureus, Mueller-Hinton broth, 18-22 hours at 35° C.
Description: (§5) Evaluation of the Minimum Inhibitory Concentration of Test Compounds Against A Variety of Bacterial Strains
(§6) In this evaluation the minimal inhibitory concentration (MIC) of test compounds against Gram positive and Gram negative bacteria is performed using the microdilution broth method as recommended by the National Committee for Clinical Laboratory Standards (Approved Standards M7-A5 2000). Mueller-Hinton broth is used for the enterobacteriaceae, staphylococci and enterococci. Streptococci are also tested in Mueller-Hinton broth supplemented with 5% horse blood (LHB). Test organisms include recent clinical isolates that are resistant to methicillin, penicillin and/or vancomycin. […].

enterococci = experiment: Minimum inhibitory concentration, microdilution broth method, enterococci; type: cell-based; conditions: Enterococcus faecalis, Mueller-Hinton broth, 18-22 hours at 35° C.
Description: as §5, §6

Streptococci = experiment: Minimum inhibitory concentration, microdilution broth method, streptococci; type: cell-based; conditions: S. pneumo GC 1894; Mueller-Hinton broth with 5% horse blood, 18-22 hours at 35° C.
Description: as §5, §6

[5] = S. aureus GC 1131, read-out: MIC S. aureus GC 1131
[6] = S. aureus GC 4543, read-out: MIC S. aureus GC 4543
[7] = E. faecalis GC 2242, read-out: MIC E. faecalis GC 2242
[8] = E. faecalis GC 4555, read-out: MIC E. faecalis GC 4555

Compound	MurA IC50 [1]	MurB IC50 [2]	MurC IC50 [3]	MurD IC50 [4]	MIC (staphylococci; [5]) [µg/mL]	MIC (staphylococci; [6]) [µg/mL]	MIC (enterococci; [7]) [µg/mL]	MIC (enterococci; [8]) [µg/mL]	MIC (Streptococci) [µg/mL]	pIC50 [1]	IC50 [2] [µM]	IC50 [3] [µM]	pIC50 [4]
O=C1O/C(=C\c2cc(C(F)(F)F)ccc2Cl)C(O)=C1c1ccc(-c2ccccc2)c(F)c1 [Example 126]	3 (E) μg/mL	1 (E) μg/mL	5 (E) μg/mL	9 (E) μg/mL	1 (≈ 2.17 µM)	1 (≈ 2.17 µM)	1 (≈ 2.17 µM)	4 (≈ 8.68 µM)	0.25 (≈ 0.543 µM)	–	–	–	–
CCCc1ccc(-c2ccc(C3=C(O)/C(=C/c4cc(C(F)(F)F)ccc4Cl)OC3=O)cc2)cc1 [Example 127]	–	–	–	–	4 (≈ 8.25 µM)	2 (≈ 4.12 µM)	2 (≈ 4.12 µM)	4 (≈ 8.25 µM)	0.25 (≈ 0.516 µM)	5.08	12.4	> 51.6	< 4.29
CC(C)(C)c1ccc(-c2ccc(C3=C(O)/C(=C/c4cc(C(F)(F)F)ccc4Cl)OC3=O)cc2)cc1 [Example 128]	–	–	–	–	8 (≈ 16 µM)	4 (≈ 8.02 µM)	2 (≈ 4.01 µM)	8 (≈ 16 µM)	0.25 (≈ 0.501 µM)	5.10	10	48.1	< 4.30
CCOc1ccc(-c2ccc(C3=C(O)/C(=C/c4cc(C(F)(F)F)ccc4Cl)OC3=O)cc2)cc1 [Example 129]	–	–	–	–	2 (≈ 4.11 µM)	2 (≈ 4.11 µM)	2 (≈ 4.11 µM)	4 (≈ 8.22 µM)	0.25 (≈ 0.513 µM)	5.39	4.11	14.4	4.84
CCCc1ccc(-c2ccc(C3=C(O)/C(=C/c4cccc(C(F)(F)F)c4)OC3=O)cc2)cc1 [Example 131]	–	–	–	–	32 (≈ 71 µM)	16 (≈ 35.5 µM)	4 (≈ 8.88 µM)	8 (≈ 17.8 µM)	0.25 (≈ 0.555 µM)	5.05	4.44	40	4.70
CC(C)(C)c1ccc(-c2ccc(C3=C(O)/C(=C/c4cccc(C(F)(F)F)c4)OC3=O)cc2)cc1 [Example 132]	–	–	–	–	16 (≈ 34.4 µM)	16 (≈ 34.4 µM)	4 (≈ 8.61 µM)	8 (≈ 17.2 µM)	0.25 (≈ 0.538 µM)	5.19	6.46	51.7	4.76
CCOc1ccc(-c2ccc(C3=C(O)/C(=C/c4cccc(C(F)(F)F)c4)OC3=O)cc2)cc1 [Example 133]	–	–	–	–	32 (≈ 70.7 µM)	32 (≈ 70.7 µM)	8 (≈ 17.7 µM)	16 (≈ 35.4 µM)	0.5 (≈ 1.11 µM)	4.35	26.5	48.6	4.31
